Measured values reported in US8217176B2, “Fused heterocyclic derivative and use thereof” (Takeda Pharmaceutical Company Limited, priority 2008, dated 2012).
Where a name gives a salt, the structure may show the parent alone.

System: NIH-3T3/Gli reporter cells
Experiment: Evaluation of compound: Shh-N-induced luciferase activity in NIH-3T3/Gli reporter cells (Smo inhibitory action)
Format: cell-based
Settings: 48 hr; for inhibition at 1 µM: NIH3T3, 1 μM compound, mouse Shh-N end fragment supernatant, read-out: inhibition rate (%) at 1 μM; for IC50: NIH3T3, mouse Shh-N end fragment supernatant, read-out: IC50 value (compound concentration necessary for achieving 50% of the maximum value of inhibition rate)
Protocol: HEK293 cells were grown in D-MEM medium (Invitrogen) containing 10% fetal bovine serum in a 10 cm dish and pcDNA3.1/mShh-N was introduced into the cells using FuGENE6 (Roche Applied Science). Thereafter, the HEK293 cells were cultured in a carbon dioxide gas incubator at 37° C. for 24 hours, and the medium was exchanged with D-MEM medium (Invitrogen) containing 2% fetal bovine serum. After culturing for 48 hr, a culture supernatant containing recombinant type mouse Shh-N end fragment was obtained by filtration using a filter ([…]).
Using D-MEM (Invitrogen) containing 10% fetal bovine serum, expression plasmid pcDNA3.1 and Gli reporter plasmid (pGL3/δ-cry promoter, 8×Gli binding site) produced by the method of Experimental Example 1 were introduced into NIH-3T3 cells grown in a 10 cm dish by the use of FuGENE6 (Roche Applied Science).
After culture for 24 hr, the cells were recovered, suspended in D-MEM medium containing 10% fetal bovine serum and supplemented with Geneticin (Life Technologies Oriental, Inc.) to a final concentration of 500 μg/ml, diluted to 10^4 cells/ml, plated on a 96 well plate, and cultured in a carbon dioxide gas incubator at 37° C. to give Geneticin resistant transformed cell line.
The obtained transformed cell line was cultured in a 96 well plate, mouse Shh-N end fragment obtained in Experimental Example 3 was added, and NIH-3T3/Gli reporter cell, which is a cell line capable of induction of luciferase expression, was selected.
NIH-3T3/Gli reporter cells cultured in D-MEM (Invitrogen) containing 10% fetal bovine serum were plated in a 96 well white plate at 1×10^4 cells/well, and cultured overnight in a carbon dioxide gas incubator at 37° C. The medium was removed, a compound (50 μl) and culture supernatant of mouse Shh-N end fragment-expressing HEK293 (D-MEM medium containing 2% fetal bovine serum, 50 μl) were added, and the cells were cultured for 48 hr in a carbon dioxide gas incubator at 37° C. Bright-Glo (Promega, 50 μl) was added, and the mixture was stirred, after which luciferase activity was measured by EnVision (PerkinElmer). The inhibition rate was calculated based on the luciferase activity of the control without addition of the compound as 100. The concentration of the compound and the inhibition rate were analyzed by PRISM3.00 (software of GraphPad), based on which the IC50 value (compound concentration necessary for achieving 50% of the maximum value of inhibition rate) of the compound was calculated.

CCN(C(C)=O)C1CCN(C(=O)c2sc3c(c2OC)c(=O)n(CC(=O)c2ccccc2)c2ccccc32)C1 (stereo not shown) [Example 2, N-ethyl-N-(1-{[3-methoxy-4-oxo-5-(2-oxo-2-phenylethyl)-4,5-dihydrothieno[3,2-c]quinolin-2-yl]carbonyl}pyrrolidin-3-yl)acetamide]
inhibition at 1 µM: 100% | IC50: ≤ 1000 nM

CCN(CC)CCN(C)C(=O)c1sc2c(c1OC)c(=O)n(Cc1ccccn1)c1ccccc21 [Example 3, N-[2-(diethylamino)ethyl]-3-methoxy-N-methyl-4-oxo-5-(pyridin-2-ylmethyl)-4,5-dihydrothieno[3,2-c]quinoline-2-carboxamide ditrifluoroacetate]
inhibition at 1 µM: 100% | IC50: ≤ 1000 nM

COc1c(C(=O)NCCN2CCCCC2)sc2c1c(=O)n(CC(=O)c1ccccc1)c1ccccc21 [Example 9, 3-methoxy-4-oxo-5-(2-oxo-2-phenylethyl)-N-(2-piperidin-1-ylethyl)-4,5-dihydrothieno[3,2-c]quinoline-2-carboxamide trifluoroacetate]
inhibition at 1 µM: 100% | IC50: ≤ 1000 nM

CCN(CC)CCCC(C)NC(=O)c1sc2c(c1OC)c(=O)n(CC(=O)c1ccccc1)c1ccccc21 (stereo not shown) [Example 13, N-[4-(diethylamino)-1-methylbutyl]-3-methoxy-4-oxo-5-(2-oxo-2-phenylethyl)-4,5-dihydrothieno[3,2-c]quinoline-2-carboxamide trifluoroacetate]
inhibition at 1 µM: 100% | IC50: ≤ 1000 nM

COc1c(C(=O)N(C)C2CCN(C)C2)sc2c1c(=O)n(CC(=O)c1ccccc1)c1ccccc21 (stereo not shown) [Example 16, 3-methoxy-N-methyl-N-(1-methylpyrrolidin-3-yl)-4-oxo-5-(2-oxo-2-phenylethyl)-4,5-dihydrothieno[3,2-c]quinoline-2-carboxamide trifluoroacetate]
inhibition at 1 µM: 100% | IC50: ≤ 1000 nM

COc1c(C(=O)N2CCCN(C)CC2)sc2c1c(=O)n(CC(=O)c1ccccc1)c1ccccc21 [Example 17, 3-methoxy-2-[(4-methyl-1,4-diazepan-1-yl)carbonyl]-5-(2-oxo-2-phenylethyl)thieno[3,2-c]quinolin-4(5H)-one trifluoroacetate]
inhibition at 1 µM: 99% | IC50: ≤ 1000 nM

COc1c(C(=O)N(CCC#N)Cc2cccnc2)sc2c1c(=O)n(CC(=O)c1ccccc1)c1ccccc21 [Example 22, N-(2-cyanoethyl)-3-methoxy-4-oxo-5-(2-oxo-2-phenylethyl)-N-(pyridin-3-ylmethyl)-4,5-dihydrothieno[3,2-c]quinoline-2-carboxamide trifluoroacetate]
inhibition at 1 µM: 91% | IC50: ≤ 1000 nM

COc1c(C(=O)N(C)CC(=O)N2CCCC2)sc2c1c(=O)n(CC(=O)c1ccccc1)c1ccccc21 [Example 27, 3-methoxy-N-methyl-4-oxo-5-(2-oxo-2-phenylethyl)-N-(2-oxo-2-pyrrolidin-1-ylethyl)-4,5-dihydrothieno[3,2-c]quinoline-2-carboxamide]
inhibition at 1 µM: 100% | IC50: ≤ 1000 nM

COc1c(C(=O)NCCO)sc2c1c(=O)n(CC(=O)c1ccccc1)c1ccccc21 [Example 32, N-(2-hydroxyethyl)-3-methoxy-4-oxo-5-(2-oxo-2-phenylethyl)-4,5-dihydrothieno[3,2-c]quinoline-2-carboxamide]
inhibition at 1 µM: 95% | IC50: ≤ 1000 nM

CCN(CC)CCN(C)C(=O)c1sc2c(c1OC)c(=O)n(CC1CC1)c1ccccc21 [Example 41, 5-(cyclopropylmethyl)-N-[2-(diethylamino)ethyl]-3-methoxy-N-methyl-4-oxo-4,5-dihydrothieno[3,2-c]quinoline-2-carboxamide]
inhibition at 1 µM: 100% | IC50: ≤ 1000 nM

CCOc1c(C(=O)NCCN2CCCC2)sc2c1c(=O)n(CC(=O)c1ccccc1)c1ccccc21 [Example 43, 3-ethoxy-4-oxo-5-(2-oxo-2-phenylethyl)-N-(2-pyrrolidin-1-ylethyl)-4,5-dihydrothieno[3,2-c]quinoline-2-carboxamide]
inhibition at 1 µM: 100% | IC50: ≤ 1000 nM

CCOc1c(C(=O)N(C)CCN(CC)CC)sc2c1c(=O)n(CC(=O)c1ccccc1)c1ccccc21 [Example 45, N-[2-(diethylamino)ethyl]-3-ethoxy-N-methyl-4-oxo-5-(2-oxo-2-phenylethyl)-4,5-dihydrothieno[3,2-c]quinoline-2-carboxamide hydrochloride]
inhibition at 1 µM: 100% | IC50: ≤ 1000 nM

CCN(CC)CCN(C)C(=O)c1sc2c(c1OC)c(=O)n(Cc1ccc(OC)cc1)c1ccccc21 [Example 48, N-[2-(diethylamino)ethyl]-3-methoxy-5-(4-methoxybenzyl)-N-methyl-4-oxo-4,5-dihydrothieno[3,2-c] quinoline-2-carboxamide hydrochloride]
inhibition at 1 µM: 10% | IC50: ≤ 1000 nM

CCN(CC)CCN(C)C(=O)c1sc2c(c1OC)c(=O)n(CC(=O)C(C)(C)C)c1ccccc21 [Example 50, N-[2-(diethylamino)ethyl]-5-(3,3-dimethyl-2-oxobutyl)-3-methoxy-N-methyl-4-oxo-4,5-dihydrothieno[3,2-c]quinoline-2-carboxamide]
inhibition at 1 µM: 100% | IC50: ≤ 1000 nM

CCN(CC)CCN(C)C(=O)c1sc2c(c1OC)c(=O)n(CCOc1ccccc1)c1ccccc21 [Example 51, N-[2-(diethylamino)ethyl]-3-methoxy-N-methyl-4-oxo-5-(2-phenoxyethyl)-4,5-dihydrothieno[3,2-c]quinoline-2-carboxamide]
inhibition at 1 µM: 100% | IC50: ≤ 1000 nM

CCN(CC)CCN(C)C(=O)c1sc2c(c1OC)c(=O)n(CC(=O)Nc1ccccc1)c1ccccc21 [Example 52, N-[2-(diethylamino)ethyl]-3-methoxy-N-methyl-4-oxo-5-[2-oxo-2-(phenylamino)ethyl]-4,5-dihydrothieno[3,2-c]quinoline-2-carboxamide hydrochloride]
inhibition at 1 µM: 95% | IC50: ≤ 1000 nM

CCOC(=O)Cn1c(=O)c2c(OC)c(C(=O)N(C)CCN(CC)CC)sc2c2ccccc21 [Example 53, ethyl [2-{[2-(diethylamino)ethyl](methyl)carbamoyl}-3-methoxy-4-oxothieno[3,2-c]quinolin-5(4H)-yl]acetate]
inhibition at 1 µM: 95% | IC50: ≤ 1000 nM

CCN(CC)CCN(C)C(=O)c1c(OC)c2c(=O)n(CC(=O)c3ccccc3)c3ccccc3c2n1C [Example 56, N-[2-(diethylamino)ethyl]-3-methoxy-N,1-dimethyl-4-oxo-5-(2-oxo-2-phenylethyl)-4,5-dihydro-1H-pyrrolo[3,2-c]quinoline-2-carboxamide hydrochloride]
inhibition at 1 µM: 100% | IC50: ≤ 1000 nM

COc1c(C(=O)NCCN2CCC(O)CC2)n(C)c2c1c(=O)n(CC(=O)c1ccccc1)c1ccccc21 [Example 69, N-[2-(4-hydroxypiperidin-1-yl)ethyl]-3-methoxy-1-methyl-4-oxo-5-(2-oxo-2-phenylethyl)-4,5-dihydro-1H-pyrrolo[3,2-c]quinoline-2-carboxamide]
inhibition at 1 µM: 100% | IC50: ≤ 1000 nM

COc1c(C(=O)NCCN2CCOCC2)n(C)c2c1c(=O)n(CC(=O)c1ccccc1)c1ccccc21 [Example 71, 3-methoxy-1-methyl-N-(2-morpholin-4-ylethyl)-4-oxo-5-(2-oxo-2-phenylethyl)-4,5-dihydro-1H-pyrrolo[3,2-c]quinoline-2-carboxamide]
inhibition at 1 µM: 100% | IC50: ≤ 1000 nM

COc1c(C(=O)N2CCCCC2CN)sc2c1c(=O)n(CC(=O)c1ccccc1)c1ccccc21 (stereo not shown) [Example 73, 2-{[2-(aminomethyl)piperidin-1-yl]carbonyl}-3-methoxy-5-(2-oxo-2-phenylethyl)thieno[3,2-c]quinolin-4(5H)-one hydrochloride]
inhibition at 1 µM: 100% | IC50: ≤ 1000 nM

COc1c(C(=O)NCC2CCCCN2)sc2c1c(=O)n(CC(=O)c1ccccc1)c1ccccc21 (stereo not shown) [Example 74, 3-methoxy-4-oxo-5-(2-oxo-2-phenylethyl)-N-(piperidin-2-ylmethyl)-4,5-dihydrothieno[3,2-c]quinoline-2-carboxamide hydrochloride]
inhibition at 1 µM: 100% | IC50: ≤ 1000 nM

COc1c(C(=O)NC(C)CN(C)C)n(C)c2c1c(=O)n(CC(=O)c1ccccc1)c1ccccc21 (stereo not shown) [Example 92, N-[2-(dimethylamino)-1-methylethyl]-3-methoxy-1-methyl-4-oxo-5-(2-oxo-2-phenylethyl)-4,5-dihydro-1H-pyrrolo[3,2-c]quinoline-2-carboxamide]
inhibition at 1 µM: 100% | IC50: ≤ 1000 nM
